Test results published in the NIST ThermoML archive (doi:10.1021/je900164a).
± gives the expanded uncertainty stated by the source.

Assay: xn = mol fraction of the nth substance listed
Conditions: 101 kPa, Liquid, Vibrating tube method

CCCC[N+](CCCC)(CCCC)CCCC.[Br-] [tetrabutylammonium bromide] + O
mass density [kg/m3]
Conditions | 282.15 K | 283.15 K | 288.15 K | 293.15 K | 298.15 K | 303.15 K | 308.15 K
x1 = 0.0009 | – | 1001 ± 0.041 | 1000.35 ± 0.041 | 999.405 ± 0.041 | 998.18 ± 0.043 | 996.74 ± 0.044 | 995.085 ± 0.045
x1 = 0.0018 | – | 1002.3 ± 0.042 | 1001.6 ± 0.042 | 1000.6 ± 0.042 | 999.32 ± 0.042 | 997.82 ± 0.044 | 996.14 ± 0.045
x1 = 0.00359 | – | 1004.95 ± 0.043 | 1004.1 ± 0.043 | 1002.98 ± 0.043 | 1001.59 ± 0.043 | 999.99 ± 0.043 | 998.22 ± 0.044
x1 = 0.00715 | – | 1010.26 ± 0.048 | 1009.15 ± 0.047 | 1007.76 ± 0.047 | 1006.13 ± 0.047 | 1004.3 ± 0.047 | 1002.32 ± 0.046
x1 = 0.01069 | – | 1015.5 ± 0.053 | 1014.04 ± 0.052 | 1012.37 ± 0.052 | 1010.49 ± 0.051 | 1008.43 ± 0.051 | 1006.21 ± 0.05
x1 = 0.01421 | – | 1020.38 ± 0.058 | 1018.72 ± 0.057 | 1016.75 ± 0.056 | 1014.53 ± 0.055 | 1012.26 ± 0.054 | 1009.84 ± 0.054
x1 = 0.0177 | 1025.44 ± 0.062 | 1025.06 ± 0.064 | 1023.06 ± 0.061 | 1020.77 ± 0.06 | 1018.3 ± 0.059 | 1015.77 ± 0.058 | 1013.13 ± 0.057
x1 = 0.02202 | 1030.69 ± 0.068 | 1030.21 ± 0.07 | 1027.79 ± 0.066 | 1025.18 ± 0.065 | 1022.43 ± 0.063 | 1019.65 ± 0.062 | 1016.74 ± 0.062
x1 = 0.02631 | 1035.23 ± 0.071 | 1034.68 ± 0.082 | 1031.87 ± 0.07 | 1028.99 ± 0.069 | 1026 ± 0.067 | 1022.97 ± 0.066 | 1019.88 ± 0.065
x1 = 0.03056 | 1038.05 ± 0.075 | 1037.44 ± 0.071 | 1035.33 ± 0.073 | 1032.22 ± 0.072 | 1029.06 ± 0.071 | 1025.85 ± 0.07 | 1022.54 ± 0.068
x1 = 0.03478 | 1042.16 ± 0.08 | 1041.49 ± 0.093 | 1038.35 ± 0.077 | 1035.02 ± 0.075 | 1031.68 ± 0.074 | 1028.34 ± 0.072 | 1024.97 ± 0.072
x1 = 0.0431 | 1047.12 ± 0.09 | 1046.41 ± 0.091 | 1042.93 ± 0.084 | 1039.41 ± 0.082 | 1035.89 ± 0.081 | 1032.36 ± 0.079 | 1028.78 ± 0.078
x1 = 0.05128 | 1051.21 ± 0.092 | 1050.46 ± 0.11 | 1046.34 ± 0.092 | 1042.74 ± 0.089 | 1039.06 ± 0.088 | 1035.44 ± 0.086 | 1031.82 ± 0.084
x1 = 0.07499 | 1057.05 ± 0.12 | 1056.3 ± 0.12 | – | – | – | – | –
